Holding throughout (assay type): functional, cell-based
The test system of one experiment is THP-1. Description: Antiproliferative activity against human THP-1 cells assessed as inhibition of cell growth incubated for 72 hrs by MTT assay. Particulars: THP-1, 72 h. On the technique in general: Tetrazolium assays rely on reduction of a dye to a coloured formazan, in cell work by metabolically active cells.
The subject of a further experiment is KG-1. Description: Antiproliferative activity against human KG-1 cells assessed as inhibition of cell growth incubated for 72 hrs by MTT assay. Particulars: KG-1, 72 h.
The test system of another experiment is U-937. Description: Antiproliferative activity against human U-937 cells assessed as inhibition of cell growth incubated for 72 hrs by MTT assay. Particulars: U-937, 72 h.
For another experiment, the system named is SK-OV-3. Description: Antiproliferative activity against human SK-OV-3 cells assessed as inhibition of cell growth incubated for 72 hrs by MTT assay. Particulars: SK-OV-3, 72 h.
The nature of experiment [1]: Antiproliferative activity against human SK-OV-3/Taxol cells assessed as inhibition of cell growth incubated for 72 hrs by MTT assay. Particulars: SK-OV-3, 72 h.

As for `O=C(/C=C/C=C/c1ccccc1)c1cnccn1`, the IC50 – broadly, the concentration at which inhibition is half-maximal – with THP-1 is 14.1 µM; with KG-1 it was 22.3 µM; in the experiment on U-937 it was 22.4 µM; in the experiment with SK-OV-3 it was over 50 µM; in experiment [1] it was over 50 µM.
For the compound `O=C(/C=C/c1cccs1)c1cnccn1`, the IC50 in the experiment with THP-1 was 10.1 µM; with KG-1, 11.9 µM; in the experiment with U-937, 6.18 µM; in the experiment on SK-OV-3, over 50 µM; in experiment [1], over 50 µM.
Turning to `O=C(/C=C/c1cccc(Cl)c1Cl)c1cnccn1`, the IC50 with THP-1 is 12.2 µM; in the experiment on KG-1 it was 54.8 µM; in the experiment with U-937, 19 µM; in the experiment with SK-OV-3, over 50 µM; in experiment [1] it was over 50 µM.
Consider `Cc1ccccc1/C=C/C(=O)c1cnccn1`, for which the IC50 in the experiment with THP-1 was 15.7 µM; in the experiment on KG-1, 15.2 µM; in the experiment with U-937, 23.6 µM; in the experiment on SK-OV-3, 31.2 µM; in experiment [1], 33.7 µM.
For `O=C(/C=C/c1ccccc1)c1cnccn1` the same measures were 15.3 µM, 10.6 µM, 8.05 µM, over 50 µM and over 50 µM.
The matching figures for `Cc1nccnc1C(=O)/C=C/c1ccccn1`: 6.22 µM, 5.39 µM, 6.55 µM, 10 µM and 11.1 µM.
The matching figures for `CC(C)(C)c1ccc(/C=C/C(=O)c2cnccn2)cc1`: 16 µM, 13.4 µM, 13.7 µM, 15.5 µM and 12.5 µM.
On to `Cc1ccccc1/C=C/C(=O)c1nccnc1C`, for which the IC50 stood at 4.97 µM with THP-1; 13 µM in the experiment on KG-1; 2.55 µM in the experiment on U-937; 2.59 µM in the experiment with SK-OV-3; 3.8 µM in experiment [1].
The matching figures for `CC(/C=C/C(=O)c1cnccn1)=C\c1ccccc1`: 19.4 µM, 44.5 µM, 22.8 µM, 29.6 µM and 30.6 µM.
The matching figures for `O=C(/C=C/c1cc2c(cc1[N+](=O)[O-])OCO2)c1cnccn1`: 2.02 µM, 11 µM, 6.87 µM, 9.99 µM and 6.57 µM.
The matching figures for `CCN(CC)c1ccc(/C=C/C(=O)c2cnccn2)cc1`: over 50 µM, over 50 µM, over 50 µM, over 50 µM and over 50 µM.
Consider `CCc1nccnc1C(=O)/C=C/c1cc2c(cc1[N+](=O)[O-])OCO2`, for which the IC50 in the experiment on THP-1 came to 3.19 µM; with KG-1, 9.24 µM; in the experiment with U-937, 3.39 µM; in the experiment with SK-OV-3, 4.29 µM; in experiment [1], 4.75 µM.
The matching figures for `Cc1nccnc1C(=O)/C=C/c1ccc(C(F)(F)F)cc1`: 5.23 µM, 5.66 µM, 3.23 µM, 7.57 µM and 8.99 µM.
For `Cc1cccc(/C=C/C(=O)c2nccnc2C)c1` the same measures were 5 µM, 5.43 µM, 3.37 µM, 2.37 µM and 1.55 µM.
The matching figures for `CCc1nccnc1C(=O)/C=C/c1cccc(C#N)c1`: 0.98 µM, 3.91 µM, 0.62 µM, 2.53 µM and 2.89 µM.
Regarding `CCc1nccnc1C(=O)/C=C/c1ccccc1Br`, the IC50 in the experiment on THP-1 is 4.57 µM; in the experiment on KG-1, 3.58 µM; in the experiment with U-937 it was 1.58 µM; with SK-OV-3, 7.93 µM; in experiment [1] it was 8.35 µM.
For `Cc1nccnc1C(=O)/C=C/c1ccccc1Br` the same measures were 1.95 µM, 2.75 µM, 1.23 µM, 3.22 µM and 2.72 µM.
The matching figures for `O=C(/C=C/c1ccc(Cl)cc1)c1cnccn1`: 10.2 µM, 12.3 µM, 11.5 µM, 9.91 µM and 10.4 µM.
For `CCc1nccnc1C(=O)/C=C/c1csc2ccccc12` the same measures were 2.39 µM, 14.4 µM, 1.76 µM, 2.06 µM and 2.29 µM.
In the case of `Cc1nccnc1C(=O)/C=C/c1ccc(S(C)(=O)=O)cc1`, the IC50 came to 1.46 µM in the experiment with THP-1; 4.37 µM in the experiment on KG-1; 0.76 µM in the experiment with U-937; 3.21 µM with SK-OV-3; 3.31 µM in experiment [1].
For `CC(/C=C/C(=O)c1nccnc1C)=C\c1ccccc1` the same measures were 4.53 µM, 4.78 µM, 2.13 µM, 7.3 µM and 6.45 µM.
For `Cc1nccnc1C(=O)/C=C/c1ccc(F)cc1F` the same measures were 17.6 µM, 6.15 µM, 13.5 µM, 3.33 µM and 2.99 µM.
The matching figures for `CCc1nccnc1C(=O)/C=C/c1ccccc1C`: 4.91 µM, 22.9 µM, 3.43 µM, 8.68 µM and 10.8 µM.
Take `CCc1nccnc1C(=O)/C=C/c1cccs1`: the concentration for half-maximal inhibition (IC50) in the experiment on THP-1 is 10.3 µM; in the experiment on KG-1 it was 19.6 µM; in the experiment with U-937, 10 µM; in the experiment on SK-OV-3 it was 9.89 µM; in experiment [1] it was 10.9 µM.
The matching figures for `CCc1nccnc1C(=O)/C=C/c1cccc(Br)c1`: 6.69 µM, 9.32 µM, 3.59 µM, 3.23 µM and 4.7 µM.
For `CCc1nccnc1C(=O)/C=C/c1cccc(Cl)c1` the same measures were 5.95 µM, 3.66 µM, 1.23 µM, 4.69 µM and 5.11 µM.
For `Cc1nccnc1C(=O)/C=C/c1cccc(F)c1` the same measures were 2.12 µM, 1.93 µM, 2.41 µM, 4.39 µM and 5.33 µM.
As for `O=C(/C=C/c1ccccc1F)c1cnccn1`, the IC50 in the experiment with THP-1 is 11.9 µM; in the experiment on KG-1 it was 9.89 µM; in the experiment with U-937 it was 11.9 µM; with SK-OV-3, 3.88 µM; in experiment [1] it was 6.18 µM.
Turning to `CCc1nccnc1C(=O)/C=C/c1cccc(C)c1`, the IC50 in the experiment on THP-1 was determined as 7.78 µM; in the experiment on KG-1, 10.3 µM; in the experiment on U-937, 6.89 µM; in the experiment with SK-OV-3, 4.52 µM; in experiment [1] it was 5.6 µM.
Regarding `Cc1nccnc1C(=O)/C=C/c1ccc(Br)cc1`, the IC50 was determined as 31.1 µM in the experiment on THP-1; 20.9 µM in the experiment with KG-1; 11.3 µM in the experiment with U-937; 12.7 µM with SK-OV-3; 13.7 µM in experiment [1].
For `CCc1nccnc1C(=O)/C=C/c1ccc(N(CC)CC)cc1` the same measures were 29.5 µM, 24.7 µM, 30.4 µM, over 50 µM and over 50 µM.
The matching figures for `Cc1nccnc1C(=O)/C=C/c1cccc(Cl)c1`: 1.35 µM, 2.15 µM, 1.6 µM, 2.02 µM and 1.57 µM.
For `O=C(/C=C/c1ccccc1Br)c1cnccn1` the same measures were 15.5 µM, 8.94 µM, 11.6 µM, 12.1 µM and 14.1 µM.
With `CCc1nccnc1C(=O)/C=C/c1cc2ccccc2o1`, the IC50 with THP-1 is 12.9 µM; in the experiment with KG-1, 22.5 µM; in the experiment on U-937, 17.4 µM; in the experiment with SK-OV-3, 17.3 µM; in experiment [1], 16.4 µM.
The matching figures for `CCc1nccnc1C(=O)/C=C/c1ccc(C(C)(C)C)cc1`: 10.2 µM, 22.5 µM, 15 µM, 11.2 µM and 12.2 µM.
Take `CC[C@@]1(O)C(=O)OCc2c1cc1n(c2=O)Cc2cc3ccccc3nc2-1` [CAMPTOTHECIN]: the IC50 in the experiment with SK-OV-3 is 2.56 µM.
Turning to `Cc1nccnc1C(=O)/C=C/c1ccccc1Cl`, the IC50 was found to be 1.76 µM in the experiment on THP-1; 1.26 µM with KG-1; 2.36 µM in the experiment with U-937; 3.08 µM with SK-OV-3; 2.94 µM in experiment [1].
For `O=C(/C=C/c1cccc(Br)c1)c1cnccn1` the same measures were 11 µM, 23.4 µM, 8.19 µM, 13.5 µM and 17 µM.
For `CCc1nccnc1C(=O)/C=C/c1ccccc1` the same measures were 23.8 µM, 3.71 µM, 1.99 µM, 4.54 µM and 5.4 µM.
The matching figures for `CCc1nccnc1C(=O)/C=C/c1cccc([N+](=O)[O-])c1`: 1.56 µM, 2.16 µM, 1.58 µM, 3.5 µM and 2.67 µM.
Regarding `Cc1nccnc1C(=O)/C=C/c1cccc(Br)c1`, the half-inhibitory concentration (IC50) came out at 1.64 µM in the experiment on THP-1; 0.08 µM with KG-1; 1.58 µM in the experiment with U-937; 1.63 µM in the experiment on SK-OV-3; 1.46 µM in experiment [1].
As to `CCc1nccnc1C(=O)/C=C/c1cccc(F)c1`, the IC50 in the experiment on THP-1 was 6.22 µM; in the experiment on KG-1, 3.47 µM; in the experiment on U-937 it was 0.66 µM; in the experiment with SK-OV-3, 4.26 µM; in experiment [1], 6.34 µM.

Source of the values: ChEMBL document CHEMBL6114992, “Design, synthesis, biological evaluation, and mechanism of action of new pyrazines as anticancer agents in vitro and in vivo” (Bioorg Med Chem, 2025).
